Measurements reported in US20020137929A1, “1 - (3-heterocyclylphenyl) isothiourea, -isourea, -guanidine and -amidine herbicidal agents” (Intellectual Property Department, BASF Aktiengesellschaft, priority 1998, published 2002).

Assays:
[1] = system: CHEAL (Lambsquarters, Common); assay: Preemergence herbicidal evaluation; format: in vivo, Chenopodium album; conditions: rated 4-5 weeks after treatment, rating scale 0-9
In short: (§1)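 Test compound, dissolved in aqueous acetone, was sprayed over planted soil cups at an equivalent of about 0.0156 to 0.500 kg/ha; seeds had been mixed with potting soil. Greenhouse growth followed, with visual 0-9 scoring of injury at four to five weeks.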

GALAP (Galium) = assay: Postemergence herbicidal evaluation; format: in vivo, Galium aparine; conditions: postemergence
In short: (§2)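 Seedlings grown about two weeks were sprayed at 40 psi with compound dispersed in 50/50 acetone/water plus 0.5% TWEEN 20, at about 0.0156 to 0.500 kg/ha. Plants were kept in the greenhouse and scored 4–5 weeks later on a 0–9 visual scale against untreated controls.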

CYPIR (Rice Flatsedge) = assay: Preemergence weed control under flooded paddy conditions; format: in vivo, Cyperus iria; conditions: rated 3-4 weeks after treatment
In short: (§3)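 Ratings on a 0-9 visual scale cover stand, vigor, malformation, size, chlorosis and overall appearance relative to a control, taken three to four weeks post-treatment. Application was into flood water over freshly sown silt loam at roughly 0.0313 to 0.500 kg/ha.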

AMBEL (Ragweed, Common) = assay: Preemergence herbicidal evaluation; format: in vivo, Ambrosia artemisifolia; conditions: rated 4-5 weeks after treatment, rating scale 0-9
In short: as §1

ZEAMX (Corn, Field) [2] = assay: Preemergence herbicidal evaluation; format: in vivo, Zea mays; conditions: rated 4-5 weeks after treatment, rating scale 0-9
In short: as §1

[3] = system: TRZAWR (Wheat, Winter, cv Riband); assay: Preemergence herbicidal evaluation; format: in vivo, Triticum aestivum; conditions: rated 4-5 weeks after treatment, rating scale 0-9
In short: as §1

ORYSAT (Rice, Tebonnet) = assay: Preemergence herbicidal evaluation; format: in vivo, Oryza sativa, (L.) Tebonnet; conditions: rated 4-5 weeks after treatment, rating scale 0-9
In short: as §1

CYPSE (Flatsedge) = assay: Preemergence weed control under flooded paddy conditions; format: in vivo, Cyperus serotinus; conditions: rated 3-4 weeks after treatment
In short: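 Seeds or propagules sown in silt loam kept flooded 1.5-3 cm; compounds in 50/50 acetone/water pipetted into flood water at about 0.0313 to 0.500 kg/ha. Greenhouse; visual 0-9 rating versus untreated control 3-4 weeks after treatment.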

CASOB (Sicklepod) = assay: Postemergence herbicidal evaluation; format: in vivo, Cassia obtusifolia; conditions: postemergence
In short: as §2

[4] = system: IPOHE (Morningglory, Ivyleaf); assay: Preemergence herbicidal evaluation; format: in vivo, Ipomoea hederacea; conditions: rated 4-5 weeks after treatment, rating scale 0-9
In short: as §1

[5] = system: ECHORC (Watergrass (Calif.)); assay: Preemergence weed control under flooded paddy conditions; format: in vivo, Echinochloa oryzoides; conditions: rated 3-4 weeks after treatment
In short: as §3

ZEAMX (Corn, Field) [6] = assay: Postemergence herbicidal evaluation; format: in vivo, Zea mays; conditions: postemergence
In short: as §2

## Cn1c(C(F)(F)F)cc(=O)n(-c2cc(N=C3SCC(=O)N3Cc3ccc(S(N)(=O)=O)cc3)c(Cl)cc2F)c1=O [Compound 135, Alpha-{2-{{2-chloro-5-[3,6-dihydro-3-methyl-2,6-dioxo-4-(trifluoromethyl)-1(2H)-pyrimidinyl]-4-fluorophenyl}imino}-4-oxo-3-thiazolidinyl}-p-toluenesulfonamide]
[1]; rate 0.0156 kg/ha
  Preemergence herbicidal rating CHEAL: 7.0
[1]; rate 0.0313 kg/ha
  Preemergence herbicidal rating CHEAL: 7.0
[1]; rate 0.0625 kg/ha
  Preemergence herbicidal rating CHEAL: 9.0
[1]; rate 0.1250 kg/ha
  Preemergence herbicidal rating CHEAL: 9.0
[1]; rate 0.2500 kg/ha
  Preemergence herbicidal rating CHEAL: 9.0
GALAP (Galium); rate 0.0156 kg/ha
  herbicidal rating GALAP: 1.0
GALAP (Galium); rate 0.0313 kg/ha
  herbicidal rating GALAP: 3.0
GALAP (Galium); rate 0.0625 kg/ha
  herbicidal rating GALAP: 4.0
CYPIR (Rice Flatsedge); 0.0313 kg/ha
  herbicidal effect rating, CYPIR: 5.0
CYPIR (Rice Flatsedge); 0.0625 kg/ha
  herbicidal effect rating, CYPIR: 6.0
CYPIR (Rice Flatsedge); 0.1250 kg/ha
  herbicidal effect rating, CYPIR: 7.0
CYPIR (Rice Flatsedge); 0.2500 kg/ha
  herbicidal effect rating, CYPIR: 7.0
AMBEL (Ragweed, Common); rate 0.0156 kg/ha
  Preemergence herbicidal rating AMBEL: 0.0
AMBEL (Ragweed, Common); rate 0.0313 kg/ha
  Preemergence herbicidal rating AMBEL: 0.0
AMBEL (Ragweed, Common); rate 0.0625 kg/ha
  Preemergence herbicidal rating AMBEL: 0.0
AMBEL (Ragweed, Common); rate 0.1250 kg/ha
  Preemergence herbicidal rating AMBEL: 4.0
AMBEL (Ragweed, Common); rate 0.2500 kg/ha
  Preemergence herbicidal rating AMBEL: 7.0
ZEAMX (Corn, Field) [2]; rate 0.0156 kg/ha
  Preemergence herbicidal rating ZEAMX: 1.0
ZEAMX (Corn, Field) [2]; rate 0.0313 kg/ha
  Preemergence herbicidal rating ZEAMX: 1.0
ZEAMX (Corn, Field) [2]; rate 0.0625 kg/ha
  Preemergence herbicidal rating ZEAMX: 0.0
ZEAMX (Corn, Field) [2]; rate 0.1250 kg/ha
  Preemergence herbicidal rating ZEAMX: 2.0
ZEAMX (Corn, Field) [2]; rate 0.2500 kg/ha
  Preemergence herbicidal rating ZEAMX: 1.0
[3]; rate 0.0156 kg/ha
  Preemergence herbicidal rating TRZAWR: 0.0
[3]; rate 0.0313 kg/ha
  Preemergence herbicidal rating TRZAWR: 0.0
[3]; rate 0.0625 kg/ha
  Preemergence herbicidal rating TRZAWR: 0.0
[3]; rate 0.1250 kg/ha
  Preemergence herbicidal rating TRZAWR: 0.0
[3]; rate 0.2500 kg/ha
  Preemergence herbicidal rating TRZAWR: 1.0
ORYSAT (Rice, Tebonnet); rate 0.0156 kg/ha
  Preemergence herbicidal rating ORYSAT: 1.0
ORYSAT (Rice, Tebonnet); rate 0.0313 kg/ha
  Preemergence herbicidal rating ORYSAT: 1.0
ORYSAT (Rice, Tebonnet); rate 0.0625 kg/ha
  Preemergence herbicidal rating ORYSAT: 1.0
ORYSAT (Rice, Tebonnet); rate 0.1250 kg/ha
  Preemergence herbicidal rating ORYSAT: 1.0
ORYSAT (Rice, Tebonnet); rate 0.2500 kg/ha
  Preemergence herbicidal rating ORYSAT: 7.0
CYPSE (Flatsedge); 0.1250 kg/ha
  herbicidal effect rating, CYPSE: 0.0
CYPSE (Flatsedge); 0.2500 kg/ha
  herbicidal effect rating, CYPSE: 0.0
CASOB (Sicklepod); rate 0.0156 kg/ha
  herbicidal rating CASOB: 2.0
CASOB (Sicklepod); rate 0.0313 kg/ha
  herbicidal rating CASOB: 4.0
CASOB (Sicklepod); rate 0.0625 kg/ha
  herbicidal rating CASOB: 4.0
[4]; rate 0.0156 kg/ha
  Preemergence herbicidal rating IPOHE: 0.0
[4]; rate 0.0313 kg/ha
  Preemergence herbicidal rating IPOHE: 0.0
[4]; rate 0.0625 kg/ha
  Preemergence herbicidal rating IPOHE: 1.0
[4]; rate 0.1250 kg/ha
  Preemergence herbicidal rating IPOHE: 9.0
[4]; rate 0.2500 kg/ha
  Preemergence herbicidal rating IPOHE: 9.0
[5]; 0.0313 kg/ha
  herbicidal effect rating, ECHORC: 7.0
[5]; 0.0625 kg/ha
  herbicidal effect rating, ECHORC: 7.0
[5]; 0.1250 kg/ha
  herbicidal effect rating, ECHORC: 7.0
[5]; 0.2500 kg/ha
  herbicidal effect rating, ECHORC: 9.0
ZEAMX (Corn, Field) [6]; rate 0.0156 kg/ha
  herbicidal rating ZEAMX: 3.5
ZEAMX (Corn, Field) [6]; rate 0.0313 kg/ha
  herbicidal rating ZEAMX: 4.0
ZEAMX (Corn, Field) [6]; rate 0.0625 kg/ha
  herbicidal rating ZEAMX: 4.0
